Marks after values point to notes of the source that are not given here.
System: Recombinant ChLAC8
Test: Laccase activity assay and enzyme kinetics of recombinant ChLAC8 with monolignol substrates
Type: biochemical, Cleome hassleriana
Details: for oxidation of monolignol by ChLAC8 (decrease in substrate by HPLC): 200 μM substrate, 30 min, 25° C.; for dimers in reaction products (LC-MS/MS) / trimers in reaction products (LC-MS/MS): reaction with ChLAC8; for Kcat / Km / Vmax: recombinant ChLAC8, substrate 25 to 800 μM, pH 6.8, 25° C.
Experimental: The open reading frame (ORF) of ChLAC8 (ChLAC8X1, XM_010555066.1) was amplified with the primers listed in Wang Supp. Table 4, ligated into the pENTR/D-TOPO vector (Invitrogen), and subcloned into pDEST17 fused with a 6× histidine tag at the N-terminus via Gateway LR recombination reaction (Invitrogen). The resulting vector (pDEST17-ChLAC8) was transformed into E. coli Rosetta (DE3) (Novagen) for protein expression. The transgenic E. coli strain was cultured in LB medium at 37° C. until OD600=0.4-0.6 and then supplemented with 0.5 mM isopropyl-β-D-thiogalactoside (IPTG) to induce the expression of ChLAC8 at 16° C. for 20 h. After induction, cell cultures were harvested by centrifugation at 10,000×g for 5 min at 4° C., and the resulting pellets were used for ChLAC8 protein purification via Ni-NTA resin (Thermo Scientific) according to the manufacturer's manual. The eluted protein was further desalted into 50 mM potassium phosphate buffer (pH 6.8) using a 30 kDa cut-off Amicon Ultra centrifugal filter (Millipore). The purity of recombinant ChLAC8 was examined by SDS-PAGE and the protein concentration was quantified by Bradford assays.
Laccase activity assays were performed in a 100 μL reaction mixture consisting of 50 mM potassium phosphate buffer (pH 6.8), 10-20 μg of recombinant ChLAC8, and 200 μM monolignol substrate (caffeyl alcohol, coniferyl alcohol or sinapyl alcohol). The reactions were incubated at 25° C. for 30 min and terminated by adding 100 μL of methanol. The reaction products were injected into an HPLC or LC-MS/MS system for analysis as described below. The decrease in the level of the substrate was measured to calculate the enzyme activity. To determine kinetic parameters, ChLAC8 was incubated with different concentrations of caffeyl alcohol or sinapyl alcohol in a range from 25 to 800 μM. The enzyme assays were performed in triplicate at each substrate concentration, and the Vmax and Km values were calculated by Graphpad Prism 8 software with nonlinear regression analysis.
The reaction products were analyzed on an Agilent 1260 HPLC system equipped with a Luna C18(2) reverse-phase column (5 μm particle, 250×4.6 mm, Phenomenex) and separated in a mobile phase consisting of solvent A (1% in phosphoric acid in water) and solvent B (acetonitrile) with the following gradient: 5% B for 5 min, to 33% B in 25 min, to 45% B in 5 min, to 95% B in 5 min, keep at 95% B for 5 min, back to 5% B in 5 min.
LC-MS/MS analysis was performed using an Agilent 1290 Infinity II liquid chromatography system coupled to an Agilent 6400 Series Triple Quadrupole System with electrospray ionization source in negative ionization mode. A reverse phase ZORBAX RR Eclipse Plus C18, 95 Å, 4.6×250 mm, 5 μm (Agilent) was used for separation. The gradient for HPLC separation was 0.1% (v/v) formic acid in water (A) and 0.1% (v/v) formic acid in acetonitrile (B) with the following solvent gradient: 5% B for 5 min, to 40% B in 30 min, to 95% B in 5 min, 95% B for 5 min, to 5% B in 1 min. The total LC-MS/MS run was 46 min with a flow rate of 1.0 mL/min. Injection volume was 10 μL. MS data were recorded in the range of m/z 100-700 (Perna et al., 2018).

Row | oxidation of monolignol by ChLAC8 (decrease in substrate by HPLC) | dimers in reaction products (LC-MS/MS) | trimers in reaction products (LC-MS/MS) | Km value for caffeyl alcohol relative to that for sinapyl alcohol (recombinant ChLAC8) | Kcat | Km | Vmax | Compound
1 | could oxidize | consistent with the masses of dimers | trimers were observed | ~3.5 fold | 0.019 ± 0.003* sec^−1 | 210 ± 90.6 µM | 284.4 ± 50.4 pKat mg^−1 | OC/C=C/c1ccc(O)c(O)c1 [Caffeyl alcohol, caffeyl alcohol]
2 | not | No dimers were detected |  |  |  |  |  | COc1cc(/C=C/CO)ccc1O [Coniferyl alcohol, coniferyl alcohol]
3 | could oxidize | consistent with the masses of dimers | No trimers were detected |  | 0.013 ± 0.001 s⁻¹ | 60.2 ± 16.7 µM | 192.0 ± 12.8 pKat mg^−1 | COc1cc(/C=C/CO)cc(OC)c1O [Sinapyl alcohol, sinapyl alcohol]

Reference: US12565659B2, “Recombinant lac polynucleotides and uses thereof to increase production of C-lignin in plants” (UNIVERSITY OF NORTH TEXAS, priority 2020, dated 2026)
